This data set can be described thus: Aqueous stability assay in DPBS buffer (HPLC). Particulars: DPBS pH 7.4, 10% DMSO, room temperature, 72 hours. The class given is physicochemical. The method, then:
and A6. Compounds were diluted in DPBS buffer (pH = 7.4; final DMSO concentration: 10%) and the remaining compound content was analyzed by HPLC. The peak area at 0 h was used for normalization.
Mean ± standard deviation of n = 2 replicates.
Figure S4. Analysis of time dependent degradation by 1j of HDAC1 (A) and HDAC6 (B) by Simple Western™ immunoassay analysis of MM.1S cell lysates. MM.1S cells were treated with 1j (10 µM) or vehicle (DMSO) for the indicated time period. Quantification of protein levels presented as mean ± standard deviation of n = 3 biological replicates. Si gnificance compared to vehicle: * = p≤0.05 , […]
2.5. Aqueous Stability Assay
For stability testing in aqueous solution, a 10-fold concentrated DMSO solution of the respective compounds was diluted in DPBS to generate a 10 µM concentration (final DMSO content of 10%).
Samples of the aqueous solutions were taken after 0, 24, 48, and 72 h at room temperature and the amounts of the parental compound and potential fragments were monitored by HPLC gradient A (see 3.1 General Information). The peak area of the 0 h sample was used for normalization. All compounds were tested in duplicates and GraphPad Prim was used for evaluation and data visualization.
The cell lysis was performed as descripted in 3.2. Simple Western Immunoassay. […]
Afterwards, proteins were transferred with the Trans -Blot Turbo Transfer System (Catalog# 1704150, Bio-Rad) to Immobilon-FL PVDF membranes (Catalog# IPFL00005, Mill ipore Merck, Burlington, MA, USA) at 1.0 A for 30 min and treated with 5% milk-powder solution for 1 h at room temperature under slight agitation. […] The ChemiDoc XRS+ System (Catalog# 1708265 , Bio-Rad) was used for detection and Image Lab Software 6.1 (Bio-Rad) for quantification. […]
In vitro inhibitory activities against HDAC1, 2 , and 6 were measured using a previously published protocol.[3] In vitro inhibitory activities against HDAC4 were measured using a previously published protocol with slight modifications. […]

Take `O=C(CCCCCCNC(=O)c1ccc(NC(=O)CCCCCCCCCCCN(C(=O)CCl)C(C(=O)NCc2ccccc2)c2ccc(Cl)c(Cl)c2)cc1)NO` (centres unmarked) [Compound 1j]: the “decomposition / reduction in content in DPBS buffer” value is given as “more than 90%”.
The figure for `O=C(CCCCCCNC(=O)c1ccc(N(C(=O)CCl)C(C(=O)NCc2ccccc2)c2ccc(Cl)c(Cl)c2)cc1)NO` (centres unmarked) [Compound 2] is 31%.

For the origin of these results see article PMC12091851, “Replacing a Cereblon Ligand by a DDB1 and CUL4 Associated Factor 11 (DCAF11) Recruiter Converts a Selective Histone Deacetylase 6 PROTAC into a Pan‐Degrader” (Chemmedchem, 2025).
